Measurements reported in ChEMBL document CHEMBL3864190, “Discovery of Pyrazolopyrimidine Derivatives as Novel Dual Inhibitors of BTK and PI3Kδ” (ACS Med Chem Lett, 2016).

Assays:
[1] = Half life in mouse plasma at 15 mg/kg, po by HPLC/MS analysis; format: ADME, organism-based
[2] = Oral bioavailability in mouse plasma at 15 mg/kg by HPLC/MS analysis; format: ADME, organism-based
[3] = Apparent volume of distribution in mouse plasma at 5 mg/kg, iv or 15 mg/kg, po by HPLC/MS analysis; format: ADME, organism-based; conditions: read-out: Vz
[4] = Drug metabolism in human liver microsomes assessed as UGT-mediated compound glucuronidation by measuring parent compound remaining at 5 uM after 30 mins in presence of UDPGA by LC-MS/MS analysis; format: ADME; conditions: read-out: Stability
[5] = Drug metabolism in human liver microsomes assessed as compound oxidation by measuring parent compound remaining at 1 uM after 30 mins in presence of NADPH by LC-MS/MS analysis; format: ADME; conditions: for remaining at 0.5 h, 1 µM: liver microsomes, read-out: Stability
[6] = Drug metabolism in mouse liver microsomes assessed as UGT-mediated compound glucuronidation by measuring parent compound remaining at 5 uM after 30 mins in presence of UDPGA by LC-MS/MS analysis; format: ADME; conditions: for remaining at 0.5 h, 5 µM: liver microsomes, read-out: Stability
[7] = Drug metabolism in mouse liver microsomes assessed as compound oxidation by measuring parent compound remaining at 1 uM after 30 mins in presence of NADPH by LC-MS/MS analysis; format: ADME; conditions: for remaining at 0.5 h, 1 µM: liver microsomes, read-out: Stability; for Stability: microsomes, 0.5 h, 1 µM
[8] = molecular target: T1, Phosphatidylinositol 4,5-bisphosphate 3-kinase catalytic subunit delta isoform (Homo sapiens, UniProt O00329); assay: Inhibition of PI3Kdelta (unknown origin) using biotinylated PIP2 as substrate in presence of streptavidin-APC by FRET assay
T1 sequence (O00329 whole entry): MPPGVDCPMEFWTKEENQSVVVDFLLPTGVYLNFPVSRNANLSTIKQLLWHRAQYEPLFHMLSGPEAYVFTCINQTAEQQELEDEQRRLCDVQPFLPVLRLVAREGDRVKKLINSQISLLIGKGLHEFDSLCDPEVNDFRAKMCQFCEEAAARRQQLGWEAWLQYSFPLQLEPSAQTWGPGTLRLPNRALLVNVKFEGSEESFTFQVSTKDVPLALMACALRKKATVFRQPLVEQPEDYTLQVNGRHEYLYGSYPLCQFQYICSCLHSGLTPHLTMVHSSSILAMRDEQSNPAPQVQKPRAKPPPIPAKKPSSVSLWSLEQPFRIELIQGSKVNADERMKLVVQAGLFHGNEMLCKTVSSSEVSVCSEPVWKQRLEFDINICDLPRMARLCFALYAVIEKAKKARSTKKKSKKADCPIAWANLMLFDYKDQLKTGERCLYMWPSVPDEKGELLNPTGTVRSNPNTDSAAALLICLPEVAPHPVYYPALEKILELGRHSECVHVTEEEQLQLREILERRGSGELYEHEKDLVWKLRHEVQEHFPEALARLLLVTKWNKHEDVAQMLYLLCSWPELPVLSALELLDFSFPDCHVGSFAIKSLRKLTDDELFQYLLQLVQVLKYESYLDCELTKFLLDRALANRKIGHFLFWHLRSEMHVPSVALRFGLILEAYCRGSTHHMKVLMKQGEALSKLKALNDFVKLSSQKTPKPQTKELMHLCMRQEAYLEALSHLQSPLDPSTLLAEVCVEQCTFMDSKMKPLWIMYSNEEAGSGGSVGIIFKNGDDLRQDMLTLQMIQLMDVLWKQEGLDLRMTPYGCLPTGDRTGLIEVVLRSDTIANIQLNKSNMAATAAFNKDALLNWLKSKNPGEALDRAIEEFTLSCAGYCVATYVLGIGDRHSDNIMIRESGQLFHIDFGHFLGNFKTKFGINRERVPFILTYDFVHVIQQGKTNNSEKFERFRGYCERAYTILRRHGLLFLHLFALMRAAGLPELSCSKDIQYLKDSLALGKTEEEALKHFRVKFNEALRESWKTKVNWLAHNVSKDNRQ

[9] = Clearance in mouse plasma at 5 mg/kg, iv or 15 mg/kg, po by HPLC/MS analysis; format: ADME, organism-based
[10] = AUC in mouse plasma at 15 mg/kg, po by HPLC/MS analysis; format: ADME, organism-based
[11] = AUC in mouse plasma at 10 mg/kg, po by HPLC/MS analysis; format: ADME, organism-based
[12] = Protein binding in mouse plasma; format: ADME, cell-free
[13] = Drug metabolism in dog liver microsomes assessed as compound oxidation by measuring parent compound remaining at 1 uM after 30 mins in presence of NADPH by LC-MS/MS analysis; format: ADME, Canis lupus familiaris; conditions: 0.5 h
[14] = molecular target: T2, Tyrosine-protein kinase BTK (Homo sapiens, UniProt Q06187)
T2 sequence (Q06187 whole entry): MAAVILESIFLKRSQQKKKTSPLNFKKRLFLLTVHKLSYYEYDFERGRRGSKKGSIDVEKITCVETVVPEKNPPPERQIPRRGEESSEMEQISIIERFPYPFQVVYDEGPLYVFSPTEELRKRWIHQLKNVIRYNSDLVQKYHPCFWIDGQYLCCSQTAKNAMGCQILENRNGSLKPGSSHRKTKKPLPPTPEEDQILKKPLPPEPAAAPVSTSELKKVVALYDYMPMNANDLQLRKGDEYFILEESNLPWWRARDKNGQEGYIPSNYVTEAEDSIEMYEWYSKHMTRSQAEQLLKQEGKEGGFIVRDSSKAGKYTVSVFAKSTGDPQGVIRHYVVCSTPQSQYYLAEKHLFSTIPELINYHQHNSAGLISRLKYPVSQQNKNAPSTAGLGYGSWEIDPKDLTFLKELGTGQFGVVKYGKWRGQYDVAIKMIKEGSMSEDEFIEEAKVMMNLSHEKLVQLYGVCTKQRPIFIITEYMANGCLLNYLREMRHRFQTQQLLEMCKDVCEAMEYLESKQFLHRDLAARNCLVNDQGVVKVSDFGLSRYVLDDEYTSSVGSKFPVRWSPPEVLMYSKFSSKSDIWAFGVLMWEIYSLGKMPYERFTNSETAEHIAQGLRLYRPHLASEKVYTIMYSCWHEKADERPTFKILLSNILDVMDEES

[15] = Efflux ratio of apparent permeability from basolateral to apical side over apical to basolateral side in human Caco2 cells; format: ADME, cell-based; conditions: caco-2
[16] = Apparent volume of distribution in mouse plasma at 2 mg/kg, iv or 10 mg/kg, po by HPLC/MS analysis; format: ADME, organism-based; conditions: in vivo
[17] = Drug metabolism in rat liver microsomes assessed as compound oxidation by measuring parent compound remaining at 1 uM after 30 mins in presence of NADPH by LC-MS/MS analysis; format: ADME
[18] = Clearance in mouse plasma at 2 mg/kg, iv or 10 mg/kg, po by HPLC/MS analysis; format: ADME, organism-based; conditions: in vivo
[19] = Oral bioavailability in mouse plasma at 10 mg/kg by HPLC/MS analysis; format: ADME, organism-based
[20] = Half life in mouse plasma at 10 mg/kg, po by HPLC/MS analysis; format: ADME, organism-based
[21] = Oral bioavailability in mouse plasma at 5 mg/kg by HPLC/MS analysis; format: ADME, organism-based
[22] = Apparent volume of distribution in mouse plasma at 1 mg/kg, iv or 5 mg/kg, po by HPLC/MS analysis; format: ADME, organism-based; conditions: read-out: Vz
[23] = Half life in mouse plasma at 5 mg/kg, po by HPLC/MS analysis; format: ADME, organism-based
[24] = Clearance in mouse plasma at 1 mg/kg, iv or 5 mg/kg, po by HPLC/MS analysis; format: ADME, organism-based
[25] = AUC in mouse plasma at 5 mg/kg, po by HPLC/MS analysis; format: ADME, organism-based
Homo sapiens [26] = species: Homo sapiens; assay: Selectivity ratio of IC50 for PI3Kalpha (unknown origin) to IC50 for PI3Kdelta (unknown origin)
Homo sapiens [27] = species: Homo sapiens; assay: Selectivity ratio of IC50 for human BMX to IC50 for human BTK
Homo sapiens [28] = species: Homo sapiens; assay: Selectivity ratio of IC50 for PI3Kgamma (unknown origin) to IC50 for PI3Kdelta (unknown origin)
Homo sapiens [29] = species: Homo sapiens; assay: Selectivity ratio of IC50 for PI3Kbeta (unknown origin) to IC50 for PI3Kdelta (unknown origin)
Homo sapiens [30] = species: Homo sapiens; assay: Selectivity ratio of IC50 for human TEC to IC50 for human BTK
[31] = molecular target: T2, Tyrosine-protein kinase BTK; conditions: at 100 nM
[32] = molecular target: T3, Phosphatidylinositol 4,5-bisphosphate 3-kinase catalytic subunit delta isoform (Homo sapiens) (UniProt O00329); assay: Inhibition of PI3Kdelta (unknown origin) using biotinylated PIP2 as substrate at 100 nM in presence of streptavidin-APC by FRET assay
T3 sequence (whole entry): T1 sequence (O00329 whole entry)

Nc1ncnc2c1c(-c1cc(O)cc(F)c1)nn2C1Cc2ccccc2C1
half-life [1]: 3.1 h
bioavailability [2]: 2.2%
Vd [3]: 6.01 L/kg
remaining at 0.5 h, 5 µM [4]: 1.3%
remaining at 0.5 h, 1 µM [5]: 67%
remaining at 0.5 h, 5 µM [6]: < 1%
remaining at 0.5 h, 1 µM [7]: 25%
IC50 [8]: 8 nM
clearance [9]: 85 mL/min/kg
AUC [10]: 0.177 µM·h

Nc1ccc2c(c1)CC(n1nc(-c3cc(F)c4c(c3)NCCO4)c3c(N)ncnc31)C2 (single isomer, unassigned; (-)) [listing 1 of 2 here]
AUC ([11]; in vivo): 15.2 µM·h
PPB [12]: 98%
Stability [13]: 32%
Stability ([5]; microsomes, 0.5 h, 1 µM): 63%
Stability ([6]; microsomes, 0.5 h, 5 µM): 99%
IC50 [14]: 32 nM
Ratio [15]: 1.7
Vz [16]: 3.44 L/kg
Stability [7]: 11%
Stability ([17]; microsomes, 0.5 h, 1 µM): 46%
IC50 [8]: 16 nM
CL [18]: 9.83 mL/min/kg
F ([19]; in vivo): 40%
t1/2 ([20]; in vivo): 1.3 h

Nc1ncnc2c1c(-c1ccc(Br)c(O)c1)nn2C1Cc2ccccc2C1
bioavailability [21]: 6.9%
remaining at 0.5 h, 5 µM [4]: 5.2%
remaining at 0.5 h, 1 µM [5]: 66%
remaining at 0.5 h, 5 µM [6]: 13%
Vd [22]: 5.9 L/kg
remaining at 0.5 h, 1 µM [7]: 53%
half-life [23]: 2.3 h
clearance [24]: 63.7 mL/min/kg
AUC [25]: 0.213 µM·h

Nc1ccc2c(c1)CC(n1nc(-c3cc(F)c4c(c3)NCCO4)c3c(N)ncnc31)C2 (stereo in doubt; (+)-32) [listing 1 of 2 here]
Ratio IC50 (Homo sapiens [26]): 6
Ratio IC50 (Homo sapiens [27]): 4
Ratio IC50 (Homo sapiens [28]): 2
Ratio IC50 (Homo sapiens [29]): 34
Ratio IC50 (Homo sapiens [30]): 20

COc1ccc(-c2nn(C3Cc4ccccc4C3)c3ncnc(N)c23)cc1O
half-life [1]: 6.3 h
bioavailability [2]: 11%
Vd [3]: 6.56 L/kg
remaining at 0.5 h, 5 µM [4]: 7%
remaining at 0.5 h, 1 µM [5]: 52%
remaining at 0.5 h, 5 µM [6]: 12%
remaining at 0.5 h, 1 µM [7]: 14%
clearance [9]: 31.2 mL/min/kg
AUC [10]: 2.37 µM·h

Nc1ccc2c(c1)CC(n1nc(-c3cc(F)c4c(c3)NCCO4)c3c(N)ncnc31)C2 (stereo in doubt; (+)-32) [listing 2 of 2 here]
AUC ([11]; plasma, read-out: AUC): 9.28 µM·h
fraction unbound ([12]; read-out: PPB (converted)): 0.02
Stability [13]: 65%
remaining at 0.5 h, 5 µM [4]: 91%
remaining at 0.5 h, 1 µM [5]: 71%
remaining at 0.5 h, 5 µM [6]: 93%
IC50 [14]: 24 nM
efflux ratio [15]: 1.3
Vz [16]: 0.58 L/kg
Stability [7]: 28%
remaining at 0.5 h, 1 µM ([17]; liver microsomes, read-out: Stability): 45%
IC50 [8]: 47 nM
CL [18]: 24.3 mL/min/kg
bioavailability ([19]; plasma): 57%
half-life ([20]; plasma): 1.2 h

Nc1ccc2c(c1)CC(n1nc(-c3cc(F)c4c(c3)NCCO4)c3c(N)ncnc31)C2 (single isomer, unassigned; (-)) [listing 2 of 2 here]
Ratio IC50 (Homo sapiens [26]): 17
Ratio IC50 (Homo sapiens [27]): 1
Ratio IC50 (Homo sapiens [28]): 7
Ratio IC50 (Homo sapiens [29]): 44
Ratio IC50 (Homo sapiens [30]): 7

Nc1ncnc2c1c(-c1cc(O)c(F)c(F)c1)nn2C1Cc2ccccc2C1
half-life [1]: 0.95 h
bioavailability [2]: 1.7%
Vd [3]: 12.1 L/kg
remaining at 0.5 h, 5 µM [4]: 3.7%
remaining at 0.5 h, 1 µM [5]: 75%
inhibition [31]: 74%
remaining at 0.5 h, 5 µM [6]: 5.1 to 7.1%
inhibition [32]: 87%
remaining at 0.5 h, 1 µM [7]: 78%
IC50 [8]: 3 nM
clearance [9]: 154 mL/min/kg
AUC [10]: 0.073 µM·h
